These results are taken from patent US10017535B2, “Amphiphilic compounds with neuroprotective properties” (USTAV ORGANICKE CHEMIE A BIOCHEMIE AV CR, v.v.i., priority 2014, dated 2018).

Counter-ions that a name gives are not always drawn. Like-named read-outs stand apart in the source and are kept apart here.

Data set [1] has as its system laboratory mice, strain CD-1. In words: Open field test (locomotor activity, sedative effect). Type of data set: in vivo. The following applies: for overall pathway in open field: 0.3 mg/kg, 50 minutes. The procedure: In the Experimental Part 1 were used adults (30-35 g) male laboratory mice, strain CD-1 from Velaz facility, Czech Republic. Mice were housed in plastic boxes with a 12-hour light cycle (lights on at 7:00 pm). Mice had free access to food and water.
Amphiphilic steroid compounds were dissolved in a solution of 3 g (2-hydroxypropyl)-β-cyclodextrin (CDX, Sigma-Aldrich) and 157 mg of citric acid ([…], Sigma-Aldrich) in 30 ml of distilled water, the pH was adjusted to 7.4 using sodium hydroxide (NaOH, Sigma-Aldrich). Thus there were prepared solutions of the four steroids for application rates of 0.1, 1, 10 and 100 mg/kg.
The efficacy of the studied compounds was compared to known NMDA antagonist is memantine (Sigma-Aldrich) at a dose of 5 mg/kg in rats, ketamine (Vétoquinol) at 10 mg/kg and dizocilpine (MK-801) (Sigma-Aldrich) at a dose of 0.3 mg/kg in mice. These three compounds were dissolved in saline (B Braun).
The substances at dose 0.1-100 mg/kg were administered before the test to mice intraperitoneally. As controls were used intact mice and mice that received CDX solution. Also, MK-801 (0.3 mg/kg) was used for comparison of effects of noncompetitive antagonist of NMDA receptors. From the experiment was evaluated overall track anywhere in the arena as an indicator of locomotor activity. In addition, it was judged a ten-minute segments track during each experiment. Based on these values, it was possible to determine the latency time of onset of action and changes in locomotor activity over time.
In this arrangement, the sedative effect of the studied compounds at the highest dose was evaluated. […] Over time was monitored locomotor activity and possible changes characterized by tremor, ataxia, restlessness, or sedation or general anesthesia (absence of response to stimuli, decreased muscle tone).

Data set [2] deals with T1, NR1-1a/NR2B NMDA receptor (Rattus norvegicus, UniProt P35439+Q00960).
T1 construct: expressed in transfected cells; host or cells: HEK293 cells (ATCC CRL1573)
The data set is described as follows: Patch-clamp inhibition of glutamate-evoked currents at recombinant NMDA receptors in transfected HEK293 cells. The class given is cell-based. The method, then: Transfected cells were identified by means of fluorescent green protein (GFP) fluorescence. Its genus was transfected together with the both receptor subunit genes.
Steroid-containing solutions were prepared from fresh solution (20 mmol·l^−1, of steroid dissolved in dimethyl sulfoxide, DMSO), which was added to the extracellular solution containing 1 mmol·l^−1 glutamic acid and 10 μmol·l^−1 of glycine. Identical concentrations of DMSO were added to all other extracellular solutions.
Current responses produced by extracellular application of glutamic acid solution (1 mmol·l^−1) were measured from the whole cell by patch-clamp technique, which is used for the study of transport of charged particles through model and also natural biological membranes. The currents were measured at membrane potential maintained at −60 mV and +60 mV.
Same amounts (0.3 μg) of cDNA coding NR1, NR2 and GFP (green fluorescent protein) (pQBI 25, Takara, Japan) were mixed with 0.9 μl of Matra-A Reagent (IBA, Göttingen, Germany) and added to confluent HEK293 cells cultivated in v 24-pit cultivating plate. After trypsination, the cells were re-suspended in Opti-MEM® I containing 1% fetal bovine serum. Subsequently, 20 mmol·l^−1 MgCl2, 1 mmol l^−1 D,L-2-amino-5-phosphonopentanoic acid, 3 mmol·l^−1 kynurenic acid was added to the mixture and cells were inoculated on the polylysine-coated glass plates having 25 mm in diameter. The following genes coding NMDA receptor subunits were used for transfection: NR1-1 a (GenBank accession No. U08261) and NR2B (GenBank accession No. M91562).
HEK293 Cultured cells were used for electrophysiological investigations with a latency of 16-40 h after transfection. Whole-cell currents were measured by patch-clamp amplifier (Axopatch 1D; Axon Instruments, Inc. Foster City, USA) after capacitance and serial resistance (<10 MΩ) compensation to 80-90%. Agonist-induced responses were filtered to 1 kHz (8-pole Bessel filter; Frequency Devices, Haverhill, USA), digitized with sampling frequency of 5 kHz and analyzed by pClamp version 9 software (Axon Instruments, USA). […] Extracellular solution (ECS) contained 160 mmol·l^−1 sodium chloride, 2.5 mmol·l^−1 potassium chloride, 10 mmol·l^−1 HEPES, 10 mmol·l^−1 glucose, 0.2 mmol·l^−1 EDTA a 0.7 mmol·l^−1 calcium chloride (pH adjusted to 7.3 by sodium hydroxide solution). Glycine was added to both testing and control solution. Moreover, bicuculline (10 μmol·l^−1) and tetrodotoxin (0.5 μmol·l^−1) was added to hippocampal cultures. Steroid-containing solutions were prepared from fresh solution (20 mmol·l^−1) of steroid dissolved in dimethyl sulfoxide (DMSO). Same concentrations of DMSO were used in all extracellular solutions. Control and experimental solutions were applied via microprocessor-controlled perfusion system with approx. rate of solution exchange in areas adjacent to cells reaching ˜10 ms.
Current responses produced by 100 μmol·l^−1 of NMDA (in the case of hipocampal neurones), or by 1 mmol·l^−1 of glutamate (on recombinant NMDA receptors) were measured at membrane potential maintained at −60 mV. […] Relative effect of steroid-induced inhibition was used for calculating IC50.
A general note: In patch-clamp work, channel activity is measured electrically.

The mark [3] stands for this setting: calculated from relative steroid-induced inhibition, Hill's coefficient 1.2, read-out: IC50.
[4] abbreviates: steroid concentration 3 μmol·l^−1, 1 mmol·l^−1 glutamate, −60 mV.
Setting [5] is: HEK293, read-out: Mean % change ± SD.

T1 sequence (Q00960 27-1482, other chains not shown): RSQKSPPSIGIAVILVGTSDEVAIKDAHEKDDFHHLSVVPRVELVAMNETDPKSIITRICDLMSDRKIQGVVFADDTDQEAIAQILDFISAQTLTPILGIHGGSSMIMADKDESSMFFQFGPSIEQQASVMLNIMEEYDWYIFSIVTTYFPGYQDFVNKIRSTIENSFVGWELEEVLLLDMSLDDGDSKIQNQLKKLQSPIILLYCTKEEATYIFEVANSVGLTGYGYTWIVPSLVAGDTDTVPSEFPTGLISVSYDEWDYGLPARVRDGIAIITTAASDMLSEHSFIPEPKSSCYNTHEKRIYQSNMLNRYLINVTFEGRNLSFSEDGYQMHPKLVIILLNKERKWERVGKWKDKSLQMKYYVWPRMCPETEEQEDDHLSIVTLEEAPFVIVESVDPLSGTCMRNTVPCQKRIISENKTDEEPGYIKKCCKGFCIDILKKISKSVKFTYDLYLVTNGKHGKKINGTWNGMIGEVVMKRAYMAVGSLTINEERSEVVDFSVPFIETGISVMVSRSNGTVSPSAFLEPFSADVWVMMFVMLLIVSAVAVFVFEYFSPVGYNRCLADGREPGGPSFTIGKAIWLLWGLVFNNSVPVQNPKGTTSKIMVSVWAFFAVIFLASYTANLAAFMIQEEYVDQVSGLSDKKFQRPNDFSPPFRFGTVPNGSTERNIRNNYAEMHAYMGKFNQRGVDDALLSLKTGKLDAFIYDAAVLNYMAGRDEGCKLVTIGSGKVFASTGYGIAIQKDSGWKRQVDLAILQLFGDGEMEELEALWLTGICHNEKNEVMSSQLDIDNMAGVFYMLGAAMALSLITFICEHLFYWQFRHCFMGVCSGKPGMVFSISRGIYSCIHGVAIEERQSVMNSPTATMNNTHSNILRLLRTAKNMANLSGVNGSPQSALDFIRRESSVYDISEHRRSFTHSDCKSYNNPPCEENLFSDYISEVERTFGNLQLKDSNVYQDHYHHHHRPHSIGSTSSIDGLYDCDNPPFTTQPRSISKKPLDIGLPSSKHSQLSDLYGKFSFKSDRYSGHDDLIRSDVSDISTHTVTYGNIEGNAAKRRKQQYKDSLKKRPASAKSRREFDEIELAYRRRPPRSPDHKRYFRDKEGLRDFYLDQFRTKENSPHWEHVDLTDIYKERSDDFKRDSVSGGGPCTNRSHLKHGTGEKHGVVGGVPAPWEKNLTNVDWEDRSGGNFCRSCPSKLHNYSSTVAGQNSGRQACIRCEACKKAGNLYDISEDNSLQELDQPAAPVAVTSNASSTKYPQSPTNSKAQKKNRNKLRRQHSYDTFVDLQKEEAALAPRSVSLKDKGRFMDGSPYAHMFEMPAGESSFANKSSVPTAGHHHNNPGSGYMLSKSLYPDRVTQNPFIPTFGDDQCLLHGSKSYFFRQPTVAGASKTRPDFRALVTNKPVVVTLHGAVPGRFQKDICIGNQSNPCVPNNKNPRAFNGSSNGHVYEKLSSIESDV

With `C[C@@]12CCCCC1[C@@H]1CC[C@@H]3C[C@H](OC(=O)CC(=O)O)CC[C@]3(C)[C@H]1CC2` (stereo partly drawn) [Compound 102, 3-(((2R,4aS,4bS,6aS,10bS,12aR)-4a,6a-Dimethyloctadecahydrochrysen-2-yl)oxy)-3-oxopropanoic acid], the melting point (commonly the temperature, or range, at which the solid turns liquid) was in the range of 145.3 to 147.2 °C. As to `C=C1C[C@H]2[C@@H]3CC[C@@H]4C[C@H](OC(=O)CCC(=O)O)CC[C@]4(C)[C@H]3CC[C@]2(C)C1`, the melting point fell in the range of 165 to 165.7 °C. On the same count and under the same terms, to `C[C@H]1CC[C@H]2[C@@H]3CC[C@@H]4C[C@H](OC(=O)CC(=O)O)CC[C@]4(C)[C@H]3CC[C@]12C` belongs 158 to 161.2 °C; to `C[C@@]12CCC[C@H]1[C@@H]1CC[C@@H]3C[C@H](OC(=O)CCC[N+](C)(C)C)CC[C@]3(C)[C@H]1CC2` (as salt: chloride) [Compound 62, 4-(((3R,5R,8S,9S,10S,13S,14S)-10,13-Dimethylhexadecahydro-1H-cyclopenta[a]-phenanthren-3-yl)oxy)-N,N,N-trimethyl-4-oxobutan-1-ammonium chloride], 225 to 227 °C; to `C[C@]12CC[C@@H](OC(=O)CCC(=O)O)C[C@H]1CC[C@H]1CCCC[C@@H]12` [Compound 9, 4-(((2R,4aS,4bS,8aR,10aR)-4a-Methyltetradecahydrophenanthren-2-yl)oxy)-4-oxobutanoic Acid], 131 to 133 °C. `C[C@H]1CC[C@H]2[C@@H]3CC[C@@H]4C[C@H](OC(=O)CCC(=O)O)CC[C@]4(C)[C@H]3CC[C@]12C`: the melting point is 141 to 142 °C.

Regarding `C[C@]12N[C@H](Cc3ccccc31)c1ccccc12` [dizocilpine, reference compound], the “overall pathway in open field” value in data set [1] (vs CDX control group) is “significant increases”; in data set [1] (vs intact animals (p=0.0653)), “tendency to increasement”. Also, the “time course of locomotor activity” value in data set [1] (dizocilpine 0.3 mg/kg, ten-minute sections) is on record as “gradual increase”. Moreover, the total locomotor activity result in data set [1] (dizocilpine 0.3 mg/kg, vs two control groups) was “significantly higher”. Regarding `C[C@@]12CCC[C@H]1[C@@H]1CC[C@@H]3C[C@H](OS(=O)(=O)O)CC[C@]3(C)[C@H]1CC2.c1ccncc1` [Compound 49, Pyridinium (3R,5R,8S,9S,10S,13S,14S)-10,13-dimethylhexadecahydro-1H-cyclopenta[a]phenanthren-3-yl 3-sulfate], the IC50 (commonly the concentration that inhibits the measured activity by half) in data set [2] (setting [3]) was 2100 nM. For the same molecule, in data set [2] (steroid concentration 2 μmol·l^−1, 1 mmol·l^−1 glutamate, −60 mV), the “Mean % change ± SD” value was 49.2 ± 6.6%.

Turning to `C[C@]12CC[C@@H](OS(=O)(=O)O)C[C@H]1CC[C@H]1CCCC[C@@H]12.c1ccncc1` [Compound 8, Pyridinium (2R,4aS,4bS,8aR,10aR)-4a-methyltetradecahydrophenanthren-2-yl 2-Sulfate], in data set [2] (setting [3]), the IC50 was 28300 nM. The “Mean % change ± SD” value in data set [2] (steroid concentration 100 μmol·l^−1, 1 mmol·l^−1 glutamate, −60 mV) stood at 78.3 ± 5.5%. Regarding `C[C@@]12CCC[C@H]1[C@H]1CC[C@H]3C[C@H](OS(=O)(=O)O)CC[C@]3(C)[C@@H]1CC2.c1ccncc1` [Compound 127, Pyridinium (3R,5S,8R,9R,10S,13S,14S)-10,13-dimethylhexadecahydro-1H-cycopenta[a]phenanthren-3-yl 3-sulfate], the IC50 in data set [2] (setting [3]) is 1700 nM. Besides, the “Mean % change ± SD” value in data set [2] (setting [4]) was found to be 34.0 ± 5.0%. The matching figures for “Pyridinium (3R,5R,8R,9S,10S,13R,14S,17R)-17-isopropyl-10,13-dimethylhexadecahydro-1H-cyclopenta[a]phenanthren-3-yl 3-sulfate [Compound 122]”: 2000 nM and 59.6 ± 18.8%. In the same order, the values of “Pyridinium (3R,5R,8S,9S,10S,13R,14R,17S)-10,17-dimethylhexadecahydro-1H-cyclopenta[a]phenanthren-3-yl 3-sulfate [Compound 119]” are 700 nM and 81.1 ± 2.1%. With “Pyridinium (3R,5R,8S,9S,10S,13R,14S,17S)-17-ethyl-10,13-dimethylhexadecahydro-1H-cyclopenta[a]phenanthren-3-yl 3-sulfate [Compound 120]”, in data set [2] (setting [3]), the IC50 was 500 nM. With “Pyridinium (3R,5R,8R,9S,10S,13R,14S,17R)-17-((R)-sec-butyl)-10,13-dimethylhexadecahydro-1H-cyclopenta[a]phenanthren-3-yl 3-sulfate [Compound 123]”, the half-inhibitory concentration (IC50) in data set [2] (setting [3]) is 11700 nM. Further, the “Mean % change ± SD” value in data set [2] (steroid concentration 10 μmol·l^−1, 1 mmol·l^−1 glutamate, −60 mV) amounted to 46.2 ± 2.3%.

On to `COC[C@@]1(C)CC[C@H]2[C@@H](CC[C@@H]3C[C@H](OC(=O)CCC(=O)O)CC[C@@]32C)C1C` (stereo partly drawn) [Compound 19, 4-(((2R,4aS,4bS,7S,8aS,10aR)-7-(methoxymethyl)-4a,7,8-trimethyltetradecahydrophenanthren-2-yl)oxy)-4-oxobutanoic acid], for which, in data set [2] (HEK293, steroid concentration 50 μmol·l^−1, 1 mmol·l^−1 glutamate, −60 mV, read-out: Mean % change ± SD), the inhibition at 50 µM worked out at 47.4 ± 4.3%. For the same molecule, the IC50 in data set [2] (setting [3]) was 55000 nM.

On to `C[C@]12CC[C@@H](OS(=O)(=O)O)C[C@H]1CC[C@@H]1[C@@H]2CC[C@@]2(C)[C@H]1CCC2(F)F` [Compound 95, Pyridinium (3R,5R,8R,9S,10S,13S,14S)-17,17-difluoro-10,13-dimethylhexadecahydro-1H-cyclopenta[a]phenanthren-3-yl 3-sulfate], for which the half-inhibitory concentration (IC50) in data set [2] came out at 7000 nM. Moreover, in data set [2] (setting [5]), the inhibition at 10 µM was found to be 61.2 ± 5.1%.

For `C[C@]12CC[C@@H](OC(=O)CC(=O)O)C[C@H]1CC[C@@H]1[C@@H]2CC[C@]2(C)C=CC[C@@H]12` [Compound 65, 3-(((3R,5R,8R,9S,10S,13R,14S)-10,13-Dimethyl-2,3,4,5,6,7,8,9,10,11,12,13,14,15-tetradecahydro-1H-cyclopenta[a]phenanthren-3-yl)oxy)-3-oxopropanoic acid], the inhibition at 10 µM in data set [2] (setting [5]) is 44 ± 11%. In addition, the IC50 in data set [2] (setting [3]) is 13500 nM. `C[C@]12CC[C@@H](OS(=O)(=O)O)C[C@H]1CC[C@@H]1[C@@H]2CC[C@]2(C)[C@@H](I)CC[C@@H]12` [Compound 93, Pyridinium (3R,5R,8R,9S,10S,13S,14S,17S)-17-iodo-10,13-dimethylhexadecahydro-1H-cyclopenta[a]phenanthren-3-yl 3-sulfate]: the inhibition at 5 µM in data set [2] (setting [5]) is 90.5 ± 2.2%. Besides, the IC50 in data set [2] (setting [3]) was 800 nM. Regarding `CC12CCCCC1C1CCC3CC(OS(=O)(=O)O)CCC3(C)C1CC2` [Compound 101, Pyridinium (2R,4aS,4bS,6aS,10bS,6aS,12aR)-4a,6a-dimethyloctadecahydrochrysen-2-yl 2-sulfate], the inhibition at 5 µM in data set [2] (HEK293, steroid concentration 5 μmol·l^−1, 1 mmol·l^−1 glutamate, −60 mV, read-out: Mean % change ± SD) stood at 69.1 ± 5.9%. In data set [2] (setting [3]), the IC50 is 2300 nM.
